Assay results from patent US10632170B2, “Administration of compstatin to an individual for the treatment of a tumor” (The Trustees of the University of Pennsylvania, priority 2008, dated 2020).

Key:
[1] = system: MDSCs from spleens and tumors; experiment: ROS and RNS production in MDSCs after stimulation in vitro (H2DCFDA); type: cell-based, mouse; details: for ROS and RNS production in spleen MDSCs of C5aR-deficient mice: MDSCs from spleens of C5aR-deficient mice; for ROS and RNS production in tumor-associated MDSCs: either subpopulation, data not shown
Protocol: The oxidation sensitive dye 2′-7′-dichloro dihydrofluorescein diacetate (H2DCFDA) (Molecular Probes) was used for the measurement of ROS and RNS production in cells isolated from tumors or spleens. The excised tumors and spleens were mechanically disintegrated to obtain a single-cell suspension. Cells resuspended in DMEM were incubated with 2 μM of dye at 37° C. for 15 min. After washing with PBS, cells were stained for flow cytometry analysis as described above. MDSCs were distinguished from other cells present in the cell suspension as a viable CD45^+CD11b^+Gr-1^+ cell population, and the fluorescence intensity was estimated in the channel suitable for FITC according to the manufacturer's instruction. The amounts of ROS and RNS in cells were proportional to the intensity of fluorescence and were expressed as median fluorescence for gated populations. For some experiments, in addition to incubation with H2DCFDA, freshly isolated cells were simultaneously stimulated by 1, 10, or 100 nM of recombinant mouse C5a expressed as previously described (Strey et al., 2003, J. Exp. Med. 198:913-923) or 1 μM of phorbol myristate acetate (PMA; Sigma-Aldrich). Preliminary experiments have shown that stimulation of cells with 10 nM C5a induced the highest induction of ROS and RNS production.
To further verify the results obtained from these in vivo studies, MDSCs from spleens and tumors of wild-type mice were stimulated to produce ROS and RNS by incubating them with various concentrations of C5a in vitro. MDSCs isolated from C5aR-deficient mice were used as an additional control for these experiments. […] It was concluded that the unresponsiveness of tumor-associated MDSCs to in vitro C5a stimulation was a result of the strong stimulation of these cells for ROS and RNS production in vivo in the tumor microenvironment and the exhaustion of this system; therefore, further stimulation of these cells in vitro failed.

[2] = system: MDSCs obtained from tumors and spleens; experiment: CD11b expression in MDSCs after stimulation in vitro (flow cytometry); type: cell-based, mouse; details: for CD11b upregulation in C5aR-deficient MDSCs: FIG. 6A-6D
Protocol: Single-cell suspensions were pre-incubated with anti-mouse CD16/CD32 mAb (Fc block, 2.4G2; BD Pharmingen) to block Fcγ receptors, then incubated with primary antibody. Fluorochrome-conjugated mAbs against mouse CD3 (17A2), CD4 (L3T4), CD8 (53-6.7), CD11b (M1/70), CD25 (PC61), CD45 (30-F11), CD69 (H1.2F3) and Gr-1 (RB6-8C5), (all from BD Biosciences) were used according to the manufacturer's instructions. In order to determine C5aR cell-surface expression, cells were sequentially incubated with rabbit polyclonal anti-mouse C5aR (C1150-32, BD Biosciences) or rabbit isotype (BD Pharmingen, 550875) and FITC-conjugated anti-rabbit IgG (F0112, R&D Systems), or with rat anti-mouse C5aR (mAb clone 20/70 Hycult biotechnology b.v., distributor-Cell science Inc.) or rat isotype (BD Pharmingen, 553928) followed by FITC-conjugated anti-rat IgG (Zymed-Invitrogen). For some experiments cells were permeabilized with the use of fixation and perm/wash buffers (BD Biosciences) prior to C5aR staining. Stained cells were subjected to six-color flow cytometry on a FACSCanto flow cytometer (BD Biosciences) using FlowJo software (Tree Star Inc.).
The migration of PMN-MDSCs to tumors requires crossing of the endothelial barrier by MDSCs. Leukocytes, in order to leave the circulation and migrate to interstitial tissues, require the interaction of their integrins with adhesion molecules on endothelial cells. It was hypothesized that the same mechanisms apply to MDSCs migrating to tumor tissue. Since CD11b is the αm subunit of integrin CR3, which interacts with ICAM-1 expressed on endothelial cells during leukocyte extravasation, the changes in CD11b expression were evaluated in MDSCs obtained from tumors and spleens after C5a stimulation in vitro.

[3] = according to the manufacturer; cited from earlier work
TC-1 tumors [4] = experiment: TC-1 syngeneic tumor growth in mice (tumor volumes); type: in vivo, mouse
Protocol: To establish TC-1 tumors, male and female mice 6-16 weeks of age were anesthetized and injected subcutaneously (s.c.) with 1×10^5 TC-1 cells in the right or left rear flank. […] Beginning about 2 weeks after cell injection, mice were anesthetized, and their tumors were measured with calipers every 2-4 days until the tumor size required sacrificing of the animals. Measurements were taken in two dimensions (length and width) because the depth of the tumor was difficult to assess in live animals. The depth of the tumor was therefore estimated based on the smaller (width) measurement, and the volume of the tumor was calculated using the formula: (length×width×depth)±2. One hour prior to sacrifice, 5-bromo-2′-deoxyuridine (BrdU; Sigma) was injected intraperitoneally (i.p.) into mice at a single dose of 50 mg/kg for further assessment of tumor or immune cell proliferation. […] Excised tumors were measured in three dimensions to obtain an accurate volume and then weighed. Tumors and spleens were cut into sections for cell isolation, histologic examination, or freezing.
Control mice in the experiments utilizing C5aR antagonist or Taxol were injected s.c., or i.p., respectively, with ˜400 μl PBS alone, or in some cases, s.c. with the cyclic hexapeptide AcF[OPdChaA(d)R] […] The pattern of the administration of this control peptide to mice followed that described for the C5aR antagonist.
The effect of genotype or treatment on tumor growth (FIGS. 1-4) was analyzed with two-way analysis of variance (ANOVA) using GraphPad Prism (GraphPad Software, Inc.); the Bonferroni post-test correction was applied to control for the occurrence of false-positives. […] A p value equal to or less than 0.05 was considered significant.

C5aR = molecular target: T1, C5aR (Mus musculus, UniProt P30993); details: cited from earlier work
T1 construct: endogenous in cells; host or cells: host cells of living C57BL/6J mice bearing TC-1 tumours (in vivo)
T1 sequence (P30993 1-351): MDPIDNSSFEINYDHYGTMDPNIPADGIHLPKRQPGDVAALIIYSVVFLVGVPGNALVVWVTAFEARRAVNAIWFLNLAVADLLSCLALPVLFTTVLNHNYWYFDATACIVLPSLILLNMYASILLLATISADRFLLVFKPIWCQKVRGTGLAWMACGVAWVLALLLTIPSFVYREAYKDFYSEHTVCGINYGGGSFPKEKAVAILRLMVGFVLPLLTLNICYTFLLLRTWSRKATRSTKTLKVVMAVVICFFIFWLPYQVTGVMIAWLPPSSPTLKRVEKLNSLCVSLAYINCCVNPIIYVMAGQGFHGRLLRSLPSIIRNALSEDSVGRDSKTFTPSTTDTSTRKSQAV

arginase-1 = experiment: Arginase-1 expression in tumor whole-cell extracts (immunoblot); type: in vivo, mouse; details: C5aR antagonist-treated vs control mice; without reaching statistical difference; FIG. 7F
Protocol: Whole-cell extracts were prepared from tumor tissue mechanically disrupted in lysis buffer (20 mM HEPES, pH 7.4, 0.2 mM EDTA, 420 mM NaCl, 1.5 mM MgCl2, 20% glycerol) treated with protease and phosphatase inhibitors (1 mM DTT, 0.1 mM PMSF, 0.1 mM Na3VO4, 1 mM NaF, 1 mM β-glycerophosphate, and 2 μg/ml each of antipain dihydrochloride, aprotinin, bestatin and leupeptin). For each protein sample, 40 μg was electrophoresed on a 12% polyacrylamide gel and transferred to a PVDF membrane. Membranes were incubated overnight at 4° C. with mouse monoclonal arginase I (8C9) antibody (Santa Cruz Biotechnology) or mouse monoclonal β-actin (AC-15) antibody (Abeam). Primary antibody binding was detected using HRP-conjugated anti-mouse antibody (Bio-Rad Laboratories, Inc.) and chemiluminescence (Amersham Pharmacia Biotech, Inc.). Protein loading was normalized according to the abundance of β-actin, with Ponceau S-stained membranes used for verification. Protein expression was quantified by densitometry using ImageQuant software (Molecular Dynamics).

TC-1 tumors [5] = experiment: Immune cell infiltration of tumors (immunofluorescent staining for CD8, CD11b); type: in vivo, mouse
Protocol: The deposition of C3 cleavage products in tumor tissue was detected using a rat anti-mouse C3 mAb (clone 2/11), as described previously (Mastellos et al, 2004, Mol. Immunol. 40:1213-1221). […] Therefore, the positive reactivity in the tissue is thought to be associated with the activation of the complement cascade and C3 cleavage. C1q and MBL deposition were evaluated with the use of a rat anti-mouse C1q mAb (Abeam, Inc.) and a polyclonal goat anti-mouse MBL (Santa Cruz Biotechnology, Inc.), respectively. These sections were co-stained with the use of biotinylated anti-mouse CD31 to visualize tumor vasculature. CD8^+ T cell and myeloid-origin cell infiltrations of tumors were analyzed using anti-mouse CD8 and anti-mouse CD11b, respectively. Isotypic rat IgGs were used as a negative control. Anti-CD31, anti-CD8 and anti-CD11b and isotype controls were purchased from BD Biosciences. Primary antibodies bound in tissue were detected with donkey anti-rat or anti-goat Cy2-conjugated antibodies (The Jackson Laboratory), except for anti-CD31, which was visualized with a streptavidin-rhodamine complex (BD Biosciences). Immunofluorescent staining was performed on frozen, 5-μm-thick sections. For detection of complement deposition, green and red fluorescence images were merged with the use of Spot software (Diagnostic instruments, Inc.). CD8^+ tumor infiltrates were quantified using ImageJ image analysis software (NIH), positive cells were counted in whole tissue sections and means were calculated. The magnitude of CD11b^+ infiltrates was assessed in a semi-quantitative manner because of the relatively low numbers of infiltrating cells. Scores from 0 to 5 were assigned to sections, according to the relative intensity of the infiltrates. In addition, the distribution of infiltrating cells was analyzed. All analyses were performed in a blinded fashion.

TC-1 tumors [6] = experiment: Tumor cell proliferation, apoptosis and angiogenesis in end-point tumor specimens; type: in vivo, mouse; details: C5aR antagonist vs PBS
Protocol: The morphology of tumors and spleens was assessed by light microscopy (Olympus BX 60) of hematoxylin and eosin-stained 5-μm paraffin sections. To assess the number of cells in the S phase of the cell cycle, paraffin sections from tumors and spleens were stained with anti-BrdU. The presence of apoptotic cells in tumor sections was determined by staining for the activated caspase-3 site on cytokeratin 18. Both assays were performed as described previously (Markiewski et al., 2004, J. Immunol. 173:747-754). The microvascular density of engrafted tumors was evaluated by immunofluorescent staining for CD31 expression on endothelial cells in frozen sections. The bound biotinylated anti-CD31 (MEC 13.3-BD Biosciences) was visualized with a streptavidin-rhodamine complex (BD Biosciences). Fluorescence was evaluated by standard fluorescent microscopy (Olympus BX 60 microscope). BrdU incorporation into tumor cells and the microvascular density of tumors were quantified in 5-10 microscopic fields (400× for BrdU and 100× for microvascular density) with the use of ImageJ image analysis software (NIH, Bethesda, Md.), and mean values were calculated. Apoptosis was assessed in a semi-quantitative manner: Scores from 0 to 4 were assigned to sections, depending on the size of the area occupied by apoptotic cells. All analyses were performed in a blinded fashion.

CCCCCCCCCCCCCC(=O)O[C@@H]1[C@@H](C)[C@@]2(O)[C@@H](C=C(CO)C[C@]3(O)C(=O)C(C)=C[C@@H]23)[C@@H]2C(C)(C)[C@]12OC(C)=O [PMA, phorbol myristate acetate]
ROS and RNS production in spleen MDSCs of C5aR-deficient mice ([1]; FIG. 7H, 7I): brisk response | ROS and RNS production in tumor-associated MDSCs [1]: lack of an increase | CD11b upregulation in C5aR-deficient MDSCs [2]: response

CC(=O)O[C@H]1C(=O)[C@@]2(C)[C@H]([C@H](OC(=O)c3ccccc3)[C@]3(O)C[C@H](OC(=O)[C@H](O)[C@@H](NC(=O)c4ccccc4)c4ccccc4)C(C)=C1C3(C)C)[C@]1(OC(C)=O)CO[C@@H]1C[C@@H]2O [Taxol, Paclitaxel]
LD50 [3]: 128 mg/kg | suppressive effect on tumor growth compared with genetic C5aR deficiency (TC-1 tumors [4]; wild-type mice treated with Taxol vs C5aR-KO mice treated with PBS, FIG. 3C): similar

AcF[OPdChaA(d)R]
ability to block C5aR signaling (C5aR; literature (Finch et al., 1999; Johswich et al., 2006)): does not have the ability to block C5aR signaling

Acetyl-Phe-[Orn-Pro-D-cyclohexylalanine-Trp-Arg] [C5aR antagonist]
arginase-1 expression in tumors (arginase-1): only slightly lower | blockade of C5a-mediated effects in rodent disease models (C5aR; literature (Kohl et al., 2006; Holland et al.)): specifically block C5a-mediated effects | location of CD11b+ cells in tumors (TC-1 tumors [5]; C5aR antagonist-treated mice, in control mice throughout the tumor sections): located only at the periphery of the tumors | number of cells expressing CD11b in tumor sections (TC-1 tumors [5]; C5aR antagonist-treated vs PBS-treated mice, FIG. 5F): lower | CD8+ cells infiltrating the tumor tissue (TC-1 tumors [5]; C5aR antagonist-treated vs control mice, FIG. 4A): heavily infiltrated by CD8^+ cells | further inhibition of tumor growth in C5aR-deficient mice (TC-1 tumors [4]; C5aR-deficient mice, in comparison to mice treated with control peptide): did not induce any further inhibition of tumor growth | tumor growth versus control mice treated with PBS (TC-1 tumors [4]; wild-type mice, 1 mg/kg s.c. every 2-3 days beginning 1 week after tumor cell injection, FIG. 3A): impaired tumor growth | inhibition of tumor growth compared with Taxol treatment (TC-1 tumors [4]; wild-type mice, C5aR antagonist 1 mg/kg s.c. vs Taxol 20 mg/kg i.p. once per week, FIG. 3A): comparable to that achieved by treatment with this anti-cancer therapeutic | tumor cell proliferation and apoptosis, and the extent of angiogenesis (TC-1 tumors [6]): only minimal differences

B1: C5a: recombinant mouse C5a anaphylatoxin used to stimulate MDSCs in vitro (protein)
chain: NLHLLRQKIEEQAAKYKHSVPKKCCYDGARVNFYETCEERVARVTIGPLCIRAFNECCTIANKIRKESPHKPVQLGR
C5a concentration giving the highest induction of ROS and RNS production ([1]; 1, 10 or 100 nM tested, preliminary experiments): 10 nM | ROS and RNS production in spleen MDSCs of C5aR-deficient mice ([1]; FIG. 7H, 7I): did not respond | ROS and RNS production in spleen MDSCs of wild-type mice ([1]; both subpopulations, vs non-stimulated cells from the same mouse, FIG. 7H, 7I): increasing their ROS and RNS production | ROS and RNS production in tumor-associated MDSCs [1]: did not respond | CD11b upregulation in C5aR-deficient MDSCs [2]: lack of CD11b upregulation | expression of CD11b in MO-MDSCs ([2]; MO-MDSCs, 10 nM C5a, FIG. 6C, 6D): did not respond | expression of CD11b in wild-type PMN-MDSCs ([2]; PMN-MDSCs from spleens and tumors, 10 nM C5a, FIG. 6A, 6B): significant increase
